Measured values from paper PMC11992225, “Antibacterial compounds against non-growing and intracellular bacteria” (npj Antimicrobials and Resistance, 2025).
Converted amounts (≈) assume the structure as drawn.

Key:
[1] = test system: E. coli CFT073 and BW25113; assay: Semapimod assay: killing and regrowth of stationary-phase E. coli in two media; type: cell-based, Escherichia coli; conditions: 1% LB diluted in PBS, 20 and 50 μM, 24 h
Method: E. coli CFT073 and BW25113 were grown in 3 ml of LB at 37 °C, shaking at 200 rpm for 16 h. The overnight cultures were then diluted either 1:100 into 40 ml of 1:4 diluted CA-MHB (40 mM HEPES, pH 7.4) or 1:10,000 into 40 ml of 1% LB in PBS and grown in 125 mL Erlenmeyer flasks for 24 h at 37 °C, shaking at 200 rpm. Following this, 1 ml aliquots of each culture were transferred to 1.5 ml test tubes, and semapimod was added at final concentrations of 20 μM and 50 μM. DMSO was added to drug-free controls. To quantify live bacteria before treatment, a sample of each culture was serially 10-fold diluted into PBS, and 10 μL drops were spot-plated onto LB agar. The closed test tubes were incubated for 24 h at 37 °C without shaking.
After treatment, the samples were diluted 2500-fold in two steps: a 50-fold dilution into PBS, followed by a 50-fold dilution into CA-MHB in a 96-well plate with a total volume of 200 μl per well. The 96-well plate was then incubated in a BioTek Synergy H1 plate reader at 37 °C with continuous shaking at medium speed for 22 h with a lid. OD600 was recorded every 20 min. Additionally, the treated samples were diluted 1:200 into LB in another 96-well plate and incubated in a BioTek Synergy Mx plate reader at 37 °C without shaking for 22 h, with OD600 recorded every hour. […]

non-growing UPEC CFT073 = assay: Dilution-regrowth assay (screen, hit validation, dose-response) on stationary-phase UPEC; type: cell-based, Escherichia coli
Method: (§1) The cultures were incubated for 24 h in non-baffled Erlenmeyer flasks at 37 °C with shaking at 200 rpm.
The high-throughput screening (HTS) procedure was based on the protocol by Hazan and colleagues[15] and conducted at the Chemical Biology Consortium Sweden (CBCS) screening facility. […] Each plate included eight wells with 200 nl of 10 mM gatifloxacin, finafloxacin, and kanamycin solutions, along with 8-wells containing 200 nl of DMSO as controls. After 24 h incubation,100 μl of the culture was dispensed into each well of the 384-well plates for screening at a final concentration of 20 μM. The plates were sealed with parafilm and incubated at 37 °C for 24 h in closed humidified boxes, with wet paper towels added to prevent evaporation. […] The plates were incubated at 37 °C for 6 h in humidified boxes, then OD600 was measured using a microplate reader.
For hit validation, bacteria were cultivated, and the dilution-regrowth assay was conducted following the same protocol used in the primary screen. Hit compounds were dispensed into 384-well plates using the Echo® (Labcyte) system, with 200, 100, or 50 nl of a 10 mM solution in DMSO added per well, yielding final screening concentrations of 20, 10, and 5 μM, respectively. OD600 values of regrowing samples were normalized to the mean OD600 of the drug-free control. The testing was conducted in two replicates.
For UPEC, dose–response analysis was conducted at the CBCS screening facility. Bacteria were cultivated, and the dilution-regrowth assay was performed according to the HTS protocol. Compounds were dispensed into 384-well plates using the Echo® (Labcyte) system, and regrowth was assessed by measuring OD600 after 6 h of incubation at 37 °C in humidified boxes. Three biological replicates were performed.
(§2) Statistical significance of the drug effects was assessed using a one-way ANOVA followed by Dunnett’s test, comparing each treatment to the drug-free control. Statistical significance of the differences in chemical characteristics between the hit compounds and the Prestwick library was assessed using a Mann–Whitney test. Statistical significance was set at P ≤ 0.05. A five-parameter logistic equation was used for asymmetric sigmoidal curve fitting and for EC50 and IC50 determination. The Venn diagram in Fig. 1F was prepared using BioVenn web application. Characteristics of the chemical and physical properties of Prestwick library compounds were obtained from Supplementary Table S1 from reference. Characteristics of the hit compounds not included in the Prestwick library were retrieved from the PubChem database.

P. aeruginosa DSM1117 = assay: MIC, standard microdilution assay, growing P. aeruginosa; type: cell-based, Pseudomonas aeruginosa; conditions: Pseudomonas aeruginosa, DSM1117; P. aeruginosa; CA-MHB pH 7.4; read-out: MIC (μM) CA-MHB
Method: (§3) Minimal inhibitory concentrations (MICs) were determined using a standard microdilution assay protocol. CA-MHB medium buffered with 40 mM HEPES (pH 7.4) was used to determine the MICs for UPEC, P. aeruginosa, and S. aureus. […] MICs for UPEC were also determined in LPM buffered with 30 mM MES (pH 5.5). For S. flexneri, MICs were determined in tryptic soy broth (TSB). The assay was performed in triplicates.

E. coli CFT073 (UPEC) = assay: MIC, standard microdilution assay, growing UPEC; type: cell-based, Escherichia coli; conditions: Escherichia coli; E. coli, pH 7.4; CA-MHB; read-out: MIC (μM) CA-MHB
Method: as §3

[2] = test system: non-growing S. aureus DSM2569; assay: Dilution-regrowth assay (OD600, start-growth-time) on stationary-phase S. aureus; type: cell-based, Staphylococcus aureus; conditions: S. aureus
Method: The cultures were grown and treated for 24 h in 1:4 CA-MHB (pH 7.4).
This approach allowed us to capture the time when cultures reached a threshold optical density (start-growth-time, SGT[15]).
as §1
For P. aeruginosa and S. aureus, dose–response analysis was conducted in 96-well plates with a 200 μl assay volume, following the procedure used for screening assay validation experiments. […] Stock solutions were prepared and stored according to the manufacturers’ instructions, then diluted in 10% DMSO before use. Cultures were incubated for 24 h in 1:4 diluted CA-MHB medium under the same conditions used for UPEC cultivation. In preliminary experiments, each compound was tested at a concentration of 20 μM in the dilution-regrowth assay with 4 technical replicates. Regrowth was monitored using a microplate reader at 37 °C with continuous shaking, and OD600 was recorded every 20 min. The time at which OD600 exceeded the threshold of 0.12 was recorded as the Start_Growth-Time.
as §2

S. flexneri 5a M90T = assay: MIC in tryptic soy broth, S. flexneri; type: cell-based, Shigella flexneri; conditions: Shigella flexneri, 5AM90T, read-out: MIC (μM) TSB
Method: as §3

TC7 cells = assay: TC7 cell viability upon drug exposure, MTS assay; type: cell-based; conditions: at the MIC concentrations, 12 h, no bacteria
Method: TC7 cells were grown to confluence in transparent 96-well cell culture plates (TPP) in the same cell culture medium used for the in vitro infection assay. Just prior to the experiment, the medium was discarded, and the cells were washed twice with sterile PBS to remove any traces of medium or dead cells. […] The plate was incubated at 37 °C in a CO2 incubator for 12 h, under the same conditions as the infection assay.
The 3-(4,5-dimethylthiazol-2-yl)-5-(3-carboxymethoxyphenyl)-2-(4-sulfophenyl)-2H-tetrazolium (MTS) assay was performed using the CellTiter 96® AQueous One Solution Cell Proliferation Assay kit (Promega), according to the manufacturer’s instructions. Briefly, 20 μl of CellTiter 96 AQueous One Solution Reagent was added to each well, and the plate was incubated for 2 h at 37 °C in a CO2 incubator. The OD490 of the samples was measured using a Spark multimode plate reader (Tecan). The raw values were normalized to the control wells incubated with infection buffer only. The experiment was performed in duplicate.

S. aureus DSM2569 = assay: MIC, standard microdilution assay, growing S. aureus; type: cell-based, Staphylococcus aureus; conditions: Staphylococcus aureus, DSM2569; S. aureus; CA-MHB pH 7.4; read-out: MIC (μM) CA-MHB
Method: as §3

## C/C(=N\NC(=N)N)c1cc(NC(=O)CCCCCCCCC(=O)Nc2cc(/C(C)=N/NC(=N)N)cc(/C(C)=N/NC(=N)N)c2)cc(/C(C)=N/NC(=N)N)c1 [semapimod]
[1]
  bactericidal activity on stationary-phase E. coli: strong bactericidal activity
non-growing UPEC CFT073; non-growing UPEC, 20 μM
  activity in the dilution-regrowth screen: not among our hits

## [H]/N=C(\N/C(=N/[H])NCCCCCCNC(=N)NC(=N)Nc1ccc(Cl)cc1)Nc1ccc(Cl)cc1 [Chlorhexidine]
P. aeruginosa DSM1117
  MIC: 8 µM (≈ 4.04 µg/mL)
E. coli CFT073 (UPEC)
  MIC: 1 µM (≈ 0.505 µg/mL)
[2]; drug concentration 0.1
  Regrowth, OD600 at 6h or 8h after dilution into drug-free medium (average): 0.684
[2]; drug concentration 0.5
  Regrowth, OD600 at 6h or 8h after dilution into drug-free medium (average): 0.683
[2]; drug concentration 2.5
  Regrowth, OD600 at 6h or 8h after dilution into drug-free medium (average): 0.676
[2]; drug concentration 10
  Regrowth, OD600 at 6h or 8h after dilution into drug-free medium (average): 0.247
[2]; Staphylococcus aureus, DSM2569, regrowth delay of non-growing bacteria, 1:4 CA-MHB pH 7.4, 24 h treatment, OD600 8 h after dilution, read-out: EC50
  EC50: 19.4 µM
S. flexneri 5a M90T
  MIC: 1 µM (≈ 0.505 µg/mL)
TC7 cells
  toxicity to TC7 epithelial cells: toxic
non-growing UPEC CFT073; E. coli in 1:4 CA-MHB (pH 7.4), drug concentration 0.25
  Regrowth, OD600 at 6h or 8h after dilution into drug-free medium (average): 0.634
non-growing UPEC CFT073; E. coli in 1:4 CA-MHB (pH 7.4), drug concentration 0.5
  Regrowth, OD600 at 6h or 8h after dilution into drug-free medium (average): 0.632
non-growing UPEC CFT073; E. coli in 1:4 CA-MHB (pH 7.4), drug concentration 1
  Regrowth, OD600 at 6h or 8h after dilution into drug-free medium (average): 0.646
non-growing UPEC CFT073; E. coli in 1:4 CA-MHB (pH 7.4), drug concentration 2.5
  Regrowth, OD600 at 6h or 8h after dilution into drug-free medium (average): 0.634
non-growing UPEC CFT073; E. coli in 1:4 CA-MHB (pH 7.4), drug concentration 5
  Regrowth, OD600 at 6h or 8h after dilution into drug-free medium (average): 0.636
non-growing UPEC CFT073; E. coli in 1:4 CA-MHB (pH 7.4), drug concentration 10
  Regrowth, OD600 at 6h or 8h after dilution into drug-free medium (average): 0.585
non-growing UPEC CFT073; E. coli in 1:4 CA-MHB (pH 7.4), drug concentration 30
  Regrowth, OD600 at 6h or 8h after dilution into drug-free medium (average): 0.062
non-growing UPEC CFT073; E. coli in LPM (pH 5.5), drug concentration 0.25
  Regrowth, OD600 at 6h or 8h after dilution into drug-free medium (average): 0.602
non-growing UPEC CFT073; E. coli in LPM (pH 5.5), drug concentration 0.5
  Regrowth, OD600 at 6h or 8h after dilution into drug-free medium (average): 0.598
non-growing UPEC CFT073; E. coli in LPM (pH 5.5), drug concentration 1
  Regrowth, OD600 at 6h or 8h after dilution into drug-free medium (average): 0.611
non-growing UPEC CFT073; E. coli in LPM (pH 5.5), drug concentration 2.5
  Regrowth, OD600 at 6h or 8h after dilution into drug-free medium (average): 0.608
non-growing UPEC CFT073; E. coli in LPM (pH 5.5), drug concentration 5
  Regrowth, OD600 at 6h or 8h after dilution into drug-free medium (average): 0.621
non-growing UPEC CFT073; E. coli in LPM (pH 5.5), drug concentration 10
  Regrowth, OD600 at 6h or 8h after dilution into drug-free medium (average): 0.624
non-growing UPEC CFT073; E. coli in LPM (pH 5.5), drug concentration 30
  Regrowth, OD600 at 6h or 8h after dilution into drug-free medium (average): 0.633
non-growing UPEC CFT073; Escherichia coli, E. coli, pH 7.4, regrowth delay of non-growing bacteria, 1:4 CA-MHB, 24 h treatment, OD600 6 h after 2500-fold dilution, read-out: EC50
  EC50: 17.5 µM
non-growing UPEC CFT073; regrowth delay and killing, Figs. 2 and 3
  activity against non-growing UPEC in LPM (pH 5.5) compared to 1:4 CA-MHB (pH 7.4): active at pH 7.4 and completely inactive in the acidic medium
S. aureus DSM2569
  MIC: 2 µM (≈ 1.01 µg/mL)
